These are literature values, as cited in patent US20150297661A1, “ANALGESIC COMPOSITIONS AND METHODS OF USE” (priority 2014, published 2015).

The structures appear in SMILES notation. A value given as a limit tells only on which side of the number the result lay.

Regarding `CCOC(=O)c1ccc(N)cc1` [Benzocaine], for the setting “after application to skin or mucosal surface”, the duration of effect was 30 to 60 min. Besides, the “time to peak effect after application” value (in contact with skin or mucosal surface) was not above 1 min.
